For data set [1] the following is noted: cited from earlier work. The source says: Similarly to other APETx-like peptides, HcrTxs form four-stranded antiparallel β-sheets cross-linked by three disulfide bridges (C1–C5, C2–C4, C3–C6). Conforming to the obtained models, the short α-helix (22-24 aa) of HcrTxs localized within the flexible region between the second and third strands (Figure 3a). Hcr 1b-2, -3, -4, and APETx2 are very basic peptides (theoretical pI being of 9.53, 9.23, 9.26, and 9.33, respectively). Basic-aromatic clusters play an important role in the formation of complexes between the ASIC channel and peptide toxins PcTx1, mambalgin- ...

A further data set has as its system ASIC1a. The settings on record: cited from earlier work. The source says:
Animal toxins produced by spiders, snakes, and sea anemones are considered molecular instruments for the study of ASICs gating and promising drug precursors. […] Peptides from spiders and snakes inhibit mostly mammalian ASIC1a channels. […] Peptides Hcr 1b-3 and Hcr 1b-4, electrophysiologically examined in this study, are the closest homologues of Hcr 1b-1 and Hcr 1b-2 (78%–97% of identity) as well as APETx2 (46%–49% of identity) that are attributed to β-defensin-like peptides. […] (Table 2). Despite the absence of the crucial basic residue Arg17 [31] in the sequence ...

The test system of another data set is ASIC2a. The settings on record: cited from earlier work. An excerpt:
(§1) It is noteworthy that to increase the current through the ASICs it takes an order of magnitude higher concentration of toxins than to inhibit it. […] No ASIC3 ...

In the next data set the test system is ASIC1b. The settings on record: cited from earlier work.
Text: as §1

A further data set concerns hERG. On the set-up: method as in 2 sources, ref 31 = [31]; PMID 25337890; doi:10.1021/jm501400p; 31. Jensen J.E. Cristofori-Armstrong B. Anangi R. Rosengren K.J. Lau C.H.Y. Mobli M. Brust A. Alewood P.F. King G.F. Rash L.D. Understanding the molecular basis of toxin promiscuity: The analgesic sea ||| ref 33 = [33]; PMID 12815161; doi:10.1124/mol.64.1.59; 33. Diochot S. APETx1, a new toxin from the sea anemone anthopleura elegantissima, blocks voltage-gated human ether-a-go-go-related gene potassium channels Mol. Pharmacol. 2003 64 59 69 10.1124/mol.64. Particulars: cited from earlier work.

The next data set has as its system ASIC3. The settings on record: cited from earlier work.
The test system of a further data set is NaV1.2. On the set-up: method as in PMID 22972919. The settings on record: cited from earlier work.
For the next data set, the system named is NaV1.8. More on the design: method as in PMID 22972919. Particulars: cited from earlier work.
The target in data set [2] is T1, rat ASIC3 channel (Rattus norvegicus, UniProt O35240).
T1 construct: expressed in transfected cells; host or cells: Xenopus laevis oocytes (cRNA injection)
T1 sequence (O35240 1-533): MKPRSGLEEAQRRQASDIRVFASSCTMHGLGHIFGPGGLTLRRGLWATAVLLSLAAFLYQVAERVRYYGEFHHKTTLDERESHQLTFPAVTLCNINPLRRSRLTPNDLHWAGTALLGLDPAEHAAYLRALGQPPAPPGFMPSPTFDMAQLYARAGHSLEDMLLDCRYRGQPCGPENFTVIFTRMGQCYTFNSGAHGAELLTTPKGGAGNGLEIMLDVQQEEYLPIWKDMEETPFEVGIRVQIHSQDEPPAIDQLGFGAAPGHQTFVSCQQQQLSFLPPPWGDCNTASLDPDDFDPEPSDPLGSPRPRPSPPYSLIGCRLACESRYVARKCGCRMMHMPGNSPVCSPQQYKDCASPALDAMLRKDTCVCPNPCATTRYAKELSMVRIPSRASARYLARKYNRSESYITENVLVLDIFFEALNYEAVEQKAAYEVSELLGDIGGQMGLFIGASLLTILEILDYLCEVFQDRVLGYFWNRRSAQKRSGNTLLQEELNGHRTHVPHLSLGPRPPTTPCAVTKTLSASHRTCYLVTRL
Particulars: rat ASIC3, X. laevis oocytes according to footnote of Table 2; read-out: IC50, inhibition of ASIC3 (APETx2); cited from earlier work. An excerpt:
(§2) Table 2 Electrophysiological activity of sea anemone toxins of structural class 1b on homomeric acid-sensing ion channels (ASICs). | column: ASIC3

For a further data set, the system named is human ASIC3. Particulars: simian-kidney-derived COS-7 cells; read-out: IC50, inhibition of human ASIC3; cited from earlier work.
Text: as §2

For a further data set, the system named is TTX-resistant NaV. On the set-up: method as in PMID 22442564. Particulars: cited from earlier work.
In another data set the test system is NaV1.7. More on the design: method as in PMID 22442564. The settings on record: TTX-sensitive NaV; read-out: EC50, NaV1.7 potentiation; cited from earlier work.
Another data set deals with KV3.1. More on the design: method as in PMID 9506974. Particulars: cited from earlier work.
A further data set has as its system KV3.4. More on the design: method as in PMID 16177043. The settings on record: cited from earlier work.
Data set [3] concerns the target T1, rat ASIC3 channel. Kind of data set: Two-electrode voltage clamp, homomeric ASIC3 transient currents in Xenopus laevis oocytes. Format: cell-based. The settings on record: mean ± SD, 5 cells. How it is done: (§3) The study of the pharmacological profile of the Hcr 1b-3 and Hcr 1b-4 peptides from H. crispa was carried out on two major ion channel subtypes, ASIC1a and ASIC3. Homomeric ASIC1a channels expressed in X. laevis oocytes were activated by a rapid pH drop from 7.8 to 5.5 in 15 s after peptide application. To analyze the effect of HcrTxs on the transient component of the ASIC3 current, the channels were activated by rapid extracellular acidification from pH 7.8 to 4.0, but effects on the sustained ASIC3 current were not studied. The inhibitory activity of three class 1b sea anemone toxins, APETx2, Hcr 1b-1, and Hcr 1b-2, towards ASICs was previously assayed in electrophysiological experiments (Table 2). In addition, we previously reported that the Hcr 1b-3 and Hcr 1b-4 peptides inhibited about 54% and 80% of the ASIC1a current, respectively.
Animal care and animal experiments were performed following the protocol approved by the Animal Care and Use Committee of the Shemyakin-Ovchinnikov Institute of Bioorganic Chemistry, Approval Code: 267/2018; Approval Date: 2 October 2018. RAS. Rat ASIC1a and ASIC3 channels were expressed in Xenopus laevis oocytes after injection of 2.5–10 ng of cRNA, as previously described. After injection oocytes were kept for 2–3 days at 19 °C and then up to 5 days at the temperature of 15–16 °C in sterile ND96 medium (96 mM NaCl, 2 mM KCl, 1.8 mM CaCl2, 1 mM MgCl2, 5 mM HEPES titrated to pH 7.4 with NaOH supplemented with 50 μg/mL of gentamycin). Two-electrode voltage clamp recordings were performed using GeneClamp 500 amplifier (Axon Instruments, Foster City, CA, USA). The data were filtered at 100 Hz and digitized at 1000 Hz by an AD converter L780 (LCard, Moscow, Russia) using in-house software. The solutions were applied to a cell chamber (volume 75 μL). The laminar flow of an external solution of ND96 (pH 7.8) was used at a rate of 1 mL/min. ASIC1a and ASIC3 were activated by a short pH drop from 7.8 to 5.5 or to 4.0 (10 mM MES or 10 mM acetic acid was used as the buffer solution, respectively) in supplementary 0.1% BSA solution. Peptides were applied for up to 15 s before the activation impulse. A value of currents inhibition was calculated as the ratio of the peak current amplitude when the peptide was applied to the average amplitude of the control peak currents before and after the peptide application and expressed as a percentage. To construct the concentration–response curves, a logistic equation was the following: y = ((1 – A)/(1 + ([C]/IC50) nH)) + A; where y is the relative value of current inhibition; C is the peptide concentration; IC50 is the half maximal inhibitory concentration; nH is the Hill coefficient; A is the response value at maximal inhibition (% of control). Calculations were carried out using software Origin 7.0. […]
In general terms: Two-electrode voltage clamp is typically applied to oocytes expressing channels or transporters.

Another data set concerns the target T2, rat ASIC1a channel (Rattus norvegicus, UniProt P55926).
T2 construct: expressed in transfected cells; host or cells: Xenopus laevis oocytes (cRNA injection)
T2 sequence (P55926 1-526): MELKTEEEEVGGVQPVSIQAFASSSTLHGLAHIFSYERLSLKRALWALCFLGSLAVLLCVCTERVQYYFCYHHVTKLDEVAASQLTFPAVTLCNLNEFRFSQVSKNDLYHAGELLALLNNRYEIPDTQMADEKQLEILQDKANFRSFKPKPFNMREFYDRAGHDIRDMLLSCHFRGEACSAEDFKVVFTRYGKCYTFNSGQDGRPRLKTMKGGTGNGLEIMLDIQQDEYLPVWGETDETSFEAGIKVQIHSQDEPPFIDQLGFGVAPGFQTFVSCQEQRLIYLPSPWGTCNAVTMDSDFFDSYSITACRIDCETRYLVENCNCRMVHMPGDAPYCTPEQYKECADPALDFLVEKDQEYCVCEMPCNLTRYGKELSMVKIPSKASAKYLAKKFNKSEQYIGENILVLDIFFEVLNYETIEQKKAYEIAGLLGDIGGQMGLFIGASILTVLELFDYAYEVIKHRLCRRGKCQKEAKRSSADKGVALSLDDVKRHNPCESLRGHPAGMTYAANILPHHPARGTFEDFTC
Nature of the data set: Two-electrode voltage clamp, homomeric ASIC1a currents in Xenopus laevis oocytes. The settings on record: mean ± SD, 5 cells. Format: cell-based. The protocol:
as §3
Animal care and animal experiments were performed following the protocol approved by the Animal Care and Use Committee of the Shemyakin-Ovchinnikov Institute of Bioorganic Chemistry, Approval Code: 267/2018; Approval Date: 2 October 2018. RAS. Rat ASIC1a and ASIC3 channels were expressed in Xenopus laevis oocytes after injection of 2.5–10 ng of cRNA, as previously described. After injection oocytes were kept for 2–3 days at 19 °C and then up to 5 days at the temperature of 15–16 °C in sterile ND96 medium (96 mM NaCl, 2 mM KCl, 1.8 mM CaCl2, 1 mM MgCl2, 5 mM HEPES titrated to pH 7.4 with NaOH supplemented with 50 μg/mL of gentamycin). Two-electrode voltage clamp recordings were performed using GeneClamp 500 amplifier (Axon Instruments, Foster City, CA, USA). The data were filtered at 100 Hz and digitized at 1000 Hz by an AD converter L780 (LCard, Moscow, Russia) using in-house software. The solutions were applied to a cell chamber (volume 75 μL). The laminar flow of an external solution of ND96 (pH 7.8) was used at a rate of 1 mL/min. ASIC1a and ASIC3 were activated by a short pH drop from 7.8 to 5.5 or to 4.0 (10 mM MES or 10 mM acetic acid was used as the buffer solution, respectively) in supplementary 0.1% BSA solution. Peptides were applied for up to 15 s before the activation impulse. A value of currents inhibition was calculated as the ratio of the peak current amplitude when the peptide was applied to the average amplitude of the control peak currents before and after the peptide application and expressed as a percentage. To construct the concentration–response curves, a logistic equation was the following: y = ((1 – A)/(1 + ([C]/IC50) nH)) + A; where y is the relative value of current inhibition; C is the peptide concentration; IC50 is the half maximal inhibitory concentration; nH is the Hill coefficient; A is the response value at maximal inhibition (% of control). Calculations were carried out using software Origin 7.0. The data are presented as mean ± SD.

Bridges are numbered along the chain shown (N, C = ends). Where no end group is shown, it is not given here.

As for “APETx2: toxin from sea anemone Anthopleura elegantissima, ASIC3 inhibitor (GTACSCGNSKGIYWFYRPSCPTDRGYTGSCRYFLGTCCTPAD; UniProt P61542 1-42, looked up)”, the “theoretical pI” value in [1] is 9.33. In the data set on ASIC1a, the “effect on ASIC1a current” value is “no effect”. The “effect on ASIC2a current” value in the data set with ASIC2a was “potentiate ASIC1b and ASIC2a currents”. The “effect on ASIC1b current” value in the data set on ASIC1b is given as “potentiate ASIC1b”. The IC50 (commonly the concentration needed to halve the response being measured) in the data set with hERG is 1210 ± 50 nM; with ASIC3 (species not given, read-out: IC50, inhibition of ASIC3), 63 nM; in the data set with NaV1.2, 114 ± 25 nM; in the data set on NaV1.8, 55 ± 10 nM; with rat ASIC3 channel [2], 63 nM; in the data set on human ASIC3, 175 nM. Moreover, the “effect on ASIC3 sustained component” value in the data set on ASIC3 (sustained current) is reported as “no effect”.

On to “BDS-I: toxin BDS-I from sea anemone A. sulcata (AAPCFCSGKPGRGDLWILRGTCPGGYGYTSNCYKWPNICCYPH; UniProt P11494 1-43, looked up)”, for which, in the data set with TTX-resistant NaV, the “effect on TTX-resistant NaV” value was “weakly inhibits TTX-resistant NaV”. Moreover, in the data set on NaV1.7, the EC50 (in general, the concentration needed to bring the measured effect to its halfway point) was around 3 nM. Also, the figures for the IC50 in the data set with KV3.1 and with KV3.4 were 47 nM and 220 nM, respectively.

Turning to “GTPCDCYGYTGVYWFMLSRCPSGYGYNLSCHYFMGICCVKR (disulfide 4-37, 6-30, 20-38) [Hcr 1b-4]”, on rat ASIC3 channel [3] (X. laevis oocytes, pH drop 7.8 to 4.0 (legend of Figure 4: from 7.4), potentiation, read-out: EC50, potentiation of transient rASIC3 current), the EC50 was determined as 1530 ± 70 nM. Further, at rat ASIC3 channel [3] (fit parameter, pH drop to 4.0), the “A, rASIC3 potentiation” value is 207.78 ± 1.56%. Besides, the IC50 at rat ASIC1a channel (X. laevis oocytes, pH drop 7.8 to 5.5 (legend of Figure 4: from 7.4), peptide applied up to 15 s before, logistic fit, read-out: IC50, inhibition of rASIC1a current) stood at 1250 ± 40 nM. The “A (response value at maximal inhibition, % of control), rASIC1a” value at rat ASIC1a channel (fit parameter, pH drop to 5.5) is recorded as 13.7 ± 0.8%.

These data come from publication PMC7232172, “APETx-Like Peptides from the Sea Anemone Heteractis crispa, Diverse in Their Effect on ASIC1a and ASIC3 Ion Channels” (Toxins, 2020).
